{"source": "patent US8410170B2", "about": "“Use of isothiocyanates compounds in treating prostatic diseases and skin cancer” (Wuxi JC Pharmaceutical Technology Co., Ltd., priority 2005, dated 2013)", "key": {"B16 mouse melanoma cells": {"system": "B16 mouse melanoma cells", "test": "MTT cell growth inhibition, B16 melanoma", "format": "cell-based", "protocol": "B16 mouse melanoma cells at exponential growth phase were digested by 0.25% trypsin, adjusted to the density of 3˜5×10^4/mL by adding the above working RPMI 1640 medium, sed into 96-well dishes at 150 μl per well, under normal culture conditions mentioned above. […] Equal volume of the working RPMI 1640 medium was added into the wells of the control group. Each group had four wells. After incubation, discarded the supernatant, added 150 μl D-Hanks per well, washed, discarded the supernatant. After adding 100 μl MTT (0.5 mg/mL), incubated for another 4 hrs. Discarded the supernatant, added 150 μl DMSO, kept at 37° C. for 10 mins. Absorbance was measured at wavelength of 570 nm."}, "LNCaP AI": {"system": "LNCaP AI", "test": "MTT growth inhibition, hormone independent LNCaP AI", "format": "cell-based", "settings": "Homo sapiens, LNCaP, 168 h, read-out: IC50, growth inhibition", "text": "The human prostate cancer cell line LNCaP AD was purchased from the American Type Culture Collection. LNCaP AI cell line was derived from LNCaP cells using a method described previously by Gao et al. (Gao, M., Ossowski, L., and Ferrari, A. C. Activation of Rb and decline in androgen receptor protein precede retinoic acid-induced apoptosis in androgen-dependent LNCaP cells and their androgen-independent derivative. J Cell Physiol, 179: 336-346, 1999). The AD and AI cells were maintained in RPMI-1640 with 10% fetal bovine serum (FBS) and charcoal stripped fetal bovine serum, penicillin-streptomycin for incubation at 5% CO2 and 37° C. respectively.\nMTT: MTT and SRB method were used to determine the effects of various isothiocyanates on cell growth as described previously (Kreis, Budman et al, 1997). Briefly, human prostate cancer cell line LNCaP grown exponentially were aliquoted into 96-well plates at a density of 2500 cells/200 μl per well. Twenty-four hrs after the incubation, the cells were exposed for seven days to serial dilutions of indicated isothiocyanate or paclitaxel. […] The absorbance was measured at wavelength 540 nm. The percent of cell survival (T/C%) were calculated based on the results of test groups to that of the control group. […]"}, "transcription factor Sp1": {"system": "transcription factor Sp1", "test": "Sp1-luc luciferase activity assay in transfected LNCaP AD cells", "format": "cell-based, human", "settings": "24 hrs", "text": "The Sp1-luc and mtSp1-luc contain three tandem repeats of consensus Sp1 sites driving the luciferase gene and its mutant. […] Effectene transfection reagent and luciferase assay kit were acquired from Qiagen (Valencia, Calif., USA) and Promega (Madison, Wis., USA). Reagents for protein electrophoresis were purchased from Bio-Rad company (USA). The other chemicals were purchased from Sigma (St. Louis, Mo.) otherwise as indicated. […] (Gao, M., Ossowski, L., and Ferrari, A. C. Activation of Rb and decline in androgen receptor protein precede retinoic acid-induced apoptosis in androgen-dependent LNCaP cells and their androgen-independent derivative. J Cell Physiol, 179: 336-346, 1999). The AD and AI cells were maintained in RPMI-1640 with 10% fetal bovine serum (FBS) and charcoal stripped fetal bovine serum, penicillin-streptomycin for incubation at 5% CO2 and 37° C. respectively. […] After incubation for 24 hrs at 5% CO2 and 37° C., the cells were transfected with 1 μg/dish of SP1-luciferase gene (Sp1-luc), or its mutant mtSp1-luc using Effectene (Qiagen, Valencia, Calif.) as the transfection reagent. […] The cells were collected, washed, lysed, and the lysates were used for luciferase activity assay using Promega luciferase assay system."}, "[1]": {"system": "xenograft B16 mouse tumor", "settings": "15 days", "protocol": "The B16 mouse melanoma cells at exponential growth phase were suspended in PBS. […] Adjusted the suspension to a cell concentration of approximately 1×10^7/ml. 0.2 ml of the suspension were transplanted subcutaneously into right axillary subcutis for passaging.\nUnder sterile condition the xenograft B16 mouse tumor in mice was stripped from axillary subcutis. After cutting by scissors, the tumor with saline (1:3) was ground in a glass homogenizer. Monocell suspension was made with saline. […] Then adjusted the suspension to a cell density of approximately 1×10^7/ml with saline. 0.2 ml were transplanted subcutaneously into right axillary subcutis of each mouse. After transplanting, randomly divided the mouse into 5 groups, 12 each.\nTumors were taken out, sizes and weights were measured, and the percent of inhibitions were calculated."}, "Sp1": {"system": "Sp1", "test": "Western blot to detect Sp1 in LNCaP cells", "format": "cell-based, human", "settings": "24 hrs", "protocol": "The cells were harvested, washed and total cellular proteins were extracted as described previously (as Example 2). Fifty μg proteins were then subjected to electrophoresis in SDS-PAGE, electro-transferred to nitrocellulose filters, and immunoblotted initially with antibodies against AR, Sp1, and PSA. The same membranes were stripped and re-probed with β-actin for loading control. The result was recorded by ECL films."}}, "note": "Read-outs that look alike come from different tables or passages of the source.", "data": [{"smiles": "S=C=NCCc1ccccc1", "note": "[PEITC, phenethyl isothiocyanate]", "values": [{"measurement": "IC50", "setting": "B16 mouse melanoma cells; B16 mouse melanoma cell line", "value": "10 to 20", "unit": "µM"}, {"measurement": "inhibition at 2.5 µM", "setting": "B16 mouse melanoma cells; Mus musculus, B16, 48 h, 2.5 μmol/L, 48 h, B16", "value": 14.5, "unit": "%"}, {"measurement": "inhibition at 5 µM", "setting": "B16 mouse melanoma cells; Mus musculus, B16, 48 h, 5.0 μmol/L, 48 h, B16", "value": 27.9, "unit": "%"}, {"measurement": "inhibition at 7.5 µM", "setting": "B16 mouse melanoma cells; Mus musculus, B16, 48 h, 7.5 μmol/L, 48 h, B16", "value": 36.7, "unit": "%"}, {"measurement": "inhibition at 10 µM", "setting": "B16 mouse melanoma cells; Mus musculus, B16, 48 h, 10.0 μmol/L, 48 h, B16", "value": 49.2, "unit": "%"}, {"measurement": "inhibition at 12.5 µM", "setting": "B16 mouse melanoma cells; Mus musculus, B16, 48 h, 12.5 μmol/L, 48 h, B16", "value": 58.4, "unit": "%"}, {"measurement": "inhibition at 15 µM", "setting": "B16 mouse melanoma cells; Mus musculus, B16, 48 h, 15.0 μmol/L, 48 h, B16", "value": 63.7, "unit": "%"}, {"measurement": "inhibition at 20 µM", "setting": "B16 mouse melanoma cells; Mus musculus, B16, 48 h, 20.0 μmol/L, 48 h, B16", "value": 77.3, "unit": "%"}, {"measurement": "inhibition at 30 µM", "setting": "B16 mouse melanoma cells; Mus musculus, B16, 48 h, 30.0 μmol/L, 48 h, B16", "value": 89.6, "unit": "%"}, {"measurement": "inhibition at 40 µM", "setting": "B16 mouse melanoma cells; Mus musculus, B16, 48 h, 40.0 μmol/L, 48 h, B16", "value": "> 96", "unit": "%"}, {"measurement": "IC50", "setting": "LNCaP AI", "value": 600, "unit": "nM"}, {"measurement": "luciferase activity of Sp1-luc transfected gene", "setting": "transcription factor Sp1", "value": "significantly decreased"}, {"measurement": "Changes in Body Weight", "setting": "[1]; PEITC 70 mg/kg/d gavage (Example 13-16)", "value": "9.78 ± 4.28", "unit": "g"}, {"measurement": "Average of Tumor Weight", "setting": "[1]; PEITC 70 mg/kg/d gavage", "value": "1.23 ± 0.68", "unit": "g"}, {"measurement": "Inhibition", "setting": "[1]; PEITC 70 mg/kg/d gavage", "value": 39.23, "unit": "%"}, {"measurement": "Changes in Body Weight", "setting": "[1]; PEITC 120 mg/kg/d gavage (Example 13-16)", "value": "6.34 ± 3.42", "unit": "g"}, {"measurement": "Average of Tumor Weight", "setting": "[1]; PEITC 120 mg/kg/d gavage", "value": "0.91 ± 0.23**∇ g"}, {"measurement": "Inhibition", "setting": "[1]; PEITC 120 mg/kg/d gavage", "value": 58.54, "unit": "%"}, {"measurement": "expression of Sp1 (Western blot)", "setting": "Sp1", "value": "significantly inhibited"}]}]}
